The values that follow come from patent publication US20110124588A1, “SYNERGISTIC ACTIVE INGREDIENT COMBINATIONS” (Bayer Cropscience AG, priority 2008, published 2011).

Where two headings read alike, the source gives them in different places.

For one assay, the system named is Phaedon cochleariae. Description: Phaedon cochleariae larvae test (sprayed cabbage leaves). Conditions: single active compound; for pest or weed control at 0.16 g/ha / pest or weed control at 0.8 g/ha / pest or weed control at 4 g/ha / pest or weed control at 20 g/ha / pest or weed control at 100 g/ha: Phaedon cochleariae. The format is in vivo, mustard beetle (Phaedon cochleariae) larvae. The protocol: (§1) If the actual kill rate exceeds the calculated value, the kill of the combination is superadditive, i.e. a synergistic effect is present. In this case, the actually observed kill rate must exceed the value calculated using the above formula for the expected kill rate (E).
Solvents: 78 parts by weight of acetone • • 1.5 parts by weight of dimethylformamide Emulsifier: 0.5 part by weight of alkylaryl polyglycol ether
After the desired period of time, the kill in % is determined 100% means that all beetle larvae have been killed; 0% means that none of the beetle larvae have been killed. The kill rates determined are entered into Colby's formula.

The subject of a further assay is Tetranychus urticae. Description: Tetranychus urticae test (OP-resistant/spray treatment). The format is in vivo, greenhouse red spider mite (Tetranychus urticae).
From the text: (§2) The expected activity of a given combination of two active compounds can be calculated as follows, according to S. R. Colby, Weeds 15 (1967), 20-22:
(§3) X is the kill rate, expressed as a percentage of the untreated control, when employing active compound A at an application rate of m g/ha or in a concentration of m ppm, Y is the kill rate, expressed as a percentage of the untreated control, when employing active compound B at an application rate of n g/ha or in a concentration of n ppm and E is the kill rate, expressed as a percentage of the untreated control, when employing active compounds A and B at application rates of m and n g/ha or in a concentration of m and n ppm, then
as §1
(§4) solvents: 78 parts by weight of acetone • • 1.5 parts by weight of dimethylformamide emulsifier: 0.5 part by weight of alkylaryl polyglycol ether
(§5) To produce a suitable preparation of active compound, 1 part by weight of active compound is mixed with the stated amounts of solvents and emulsifier, and the concentrate is diluted with emulsifier-containing water to the desired concentration.
Discs of bean leaves (Phaseolus vulgaris) which are infested by all stages of the greenhouse red spider mite (Tetranychus urticae) are sprayed with an active compound preparation of the desired concentration.
After the desired period of time, the activity in % is determined 100% means that all spider mites have been killed; 0% means that none of the spider mites have been killed.

Another assay concerns Spodoptera frugiperda. Description: Spodoptera frugiperda larvae test (sprayed cabbage leaves). The format is in vivo, army worm (Spodoptera frugiperda) larvae. Conditions: for pest or weed control at 0.16 g/ha / pest or weed control at 0.8 g/ha / pest or weed control at 20 g/ha / pest or weed control at 4 g/ha / pest or weed control at 100 g/ha: Spodoptera frugiperda.
From the text: as §2, §3, §1, §4, §5
Cabbage leaves (Brassica oleracea) are treated by spraying with the active compound preparation of the desired concentration and are populated with larvae of the army worm (Spodoptera frugiperda) while the leaves are still moist.
After the desired period of time, the kill in % is determined 100% means that all caterpillars have been killed; 0% means that none of the caterpillars have been killed. The kill rates determined are entered into Colby's formula.

The subject of a further assay is Myzus persicae. Description: Myzus persicae test (spray treatment of infested cabbage leaves). As to conditions: for pest or weed control at 0.16 g/ha / pest or weed control at 0.8 g/ha / pest or weed control at 0.032 g/ha: Myzus persicae. Format: in vivo, green peach aphid (Myzus persicae). As to the method: as §1, §4
After the desired period of time, the kill in % is determined 100% means that all aphids have been killed; 0% means that none of the aphids have been killed. The kill rates determined are entered into Colby's formula.

Setting [1] is: 48 h, 2 d, read-out: Kill in % after 2 d.
Setting [2] is: 48 h, 0.8 g/ha, 2 d, read-out: Kill in % after 2 d.
The mark [3] stands for this setting: 144 h, 6 d, read-out: Kill in % after 6 d.
[4] abbreviates: 144 h, 0.8 g/ha, 6 d, read-out: Kill in % after 6 d.
Where [5] appears, read: Tetranychus urticae, 48 h, read-out: Kill in % after 2 d.
Where [6] appears, read: Tetranychus urticae, 144 h, read-out: Kill in % after 6 d.
Where [7] appears, read: 48 h, read-out: Kill in % after 2 d.
[8] abbreviates: 144 h, read-out: Kill in % after 6 d.
Where [9] appears, read: 24 h, read-out: Kill in % after 1 d.
The mark [10] stands for this setting: 144 h, single active compound, 0.8 g/ha, 6 d, read-out: Kill in % after 6 d.

In the case of `CC(c1ccc(C(F)(F)F)nc1)S(C)(=O)=NC#N` (centres unmarked) [compound (I-8)], the pest or weed control at 0.16 g/ha in the assay with Phaedon cochleariae (setting [1]), with Phaedon cochleariae (setting [3]), in the assay on Tetranychus urticae (setting [6]), in the assay with Spodoptera frugiperda (setting [7]), in the assay with Spodoptera frugiperda (setting [8]) and with Myzus persicae (setting [9]) was 0% each time. For the same compound, in the assay on Myzus persicae (setting [8]), the pest or weed control at 0.16 g/ha amounted to 60%. For the same compound, the pest or weed control at 0.8 g/ha with Phaedon cochleariae (setting [2]), in the assay with Phaedon cochleariae (setting [4]), in the assay on Tetranychus urticae (setting [5]), in the assay with Tetranychus urticae (setting [6]), with Spodoptera frugiperda (setting [7]) and in the assay on Spodoptera frugiperda (setting [8]) was 0% in each case. The pest or weed control at 4 g/ha in the assay on Phaedon cochleariae (setting [1]), in the assay with Phaedon cochleariae (setting [3]), in the assay with Tetranychus urticae (setting [5]), with Tetranychus urticae (setting [6]) and in the assay with Spodoptera frugiperda (setting [8]) was 0% in each case. Moreover, the pest or weed control at 20 g/ha with Phaedon cochleariae (setting [1]) came to 0%; in the assay with Phaedon cochleariae (setting [3]) it was 17%; with Tetranychus urticae (setting [6]), 0%; with Spodoptera frugiperda (setting [7]) it was 0%; in the assay on Spodoptera frugiperda (setting [8]) it was 0%. For the same compound, the results for the pest or weed control at 100 g/ha in the assay on Phaedon cochleariae (setting [1]), with Phaedon cochleariae (setting [3]) and with Tetranychus urticae (setting [6]) were 67%, 67% and 0%, respectively.

Turning to `CC(c1ccc(Cl)nc1)S(C)(=O)=NC#N` (centres unmarked) [compound (I-5)], the pest or weed control at 4 g/ha with Phaedon cochleariae (setting [1]) amounted to 0%; in the assay on Phaedon cochleariae (setting [3]) it was 0%; in the assay with Tetranychus urticae (Tetranychus urticae, 48 h, single active compound, 4 g/ha, after 2 d, read-out: Kill in % after 2 d), 0%; in the assay with Tetranychus urticae (Tetranychus urticae, 144 h, single active compound, 4 g/ha, after 6 d, read-out: Kill in % after 6 d), 0%; with Spodoptera frugiperda (144 h, single active compound, 4 g/ha, 6 d, read-out: Kill in % after 6 d), 0%. Besides, the pest or weed control at 20 g/ha in the assay on Phaedon cochleariae (setting [1]) turned out to be 0%; in the assay with Phaedon cochleariae (setting [3]), 0%; in the assay on Tetranychus urticae (Tetranychus urticae, 144 h, single active compound, 20 g/ha, after 6 d, read-out: Kill in % after 6 d) it was 0%; with Spodoptera frugiperda (48 h, single active compound, 20 g/ha, 2 d, read-out: Kill in % after 2 d), 0%; in the assay with Spodoptera frugiperda (144 h, single active compound, 20 g/ha, 6 d, read-out: Kill in % after 6 d), 0%. For the same compound, the pest or weed control at 0.8 g/ha in the assay with Phaedon cochleariae (setting [4]) came to 0%; with Tetranychus urticae (Tetranychus urticae, 48 h, single active compound, 0.8 g/ha, after 2 d, read-out: Kill in % after 2 d), 0%; with Spodoptera frugiperda (48 h, single active compound, 0.8 g/ha, 2 d, read-out: Kill in % after 2 d), 0%; in the assay on Spodoptera frugiperda (setting [10]), 0%; with Myzus persicae (24 h, single active compound, 0.8 g/ha, 1 d, read-out: Kill in % after 1 d), 0%; in the assay with Myzus persicae (setting [10]), 20%. Moreover, the pest or weed control at 100 g/ha in the assay with Tetranychus urticae (Tetranychus urticae, 144 h, single active compound, 100 g/ha, after 6 d, read-out: Kill in % after 6 d) was determined as 0%; in the assay on Spodoptera frugiperda (48 h, single active compound, 100 g/ha, 2 d, read-out: Kill in % after 2 d) it was 0%; in the assay with Spodoptera frugiperda (144 h, single active compound, 100 g/ha, 6 d, read-out: Kill in % after 6 d), 0%. Besides, the pest or weed control at 0.16 g/ha amounted to 0% with Spodoptera frugiperda (48 h, single active compound, 0.16 g/ha, 2 d, read-out: Kill in % after 2 d); 0% with Myzus persicae (24 h, single active compound, 0.16 g/ha, 1 d, read-out: Kill in % after 1 d); 0% in the assay with Myzus persicae (144 h, single active compound, 0.16 g/ha, 6 d, read-out: Kill in % after 6 d).

For `CC1(C)[C@H](C(=O)O[C@H](C#N)c2cccc(Oc3ccccc3)c2)[C@@H]1C=C(Br)Br` [deltamethrin], the pest or weed control at 0.8 g/ha in the assay on Phaedon cochleariae (setting [2]) was found to be 67%. For the same compound, the pest or weed control at 0.16 g/ha in the assay with Phaedon cochleariae (setting [3]) amounted to 50%; in the assay with Spodoptera frugiperda (setting [8]), 17%. For the same compound, in the assay on Tetranychus urticae (setting [6]), the pest or weed control at 4 g/ha came out at 0%. Besides, the pest or weed control at 0.032 g/ha in the assay with Myzus persicae (setting [9]) came to 0%.

Take `Cc1nn(C)c(Oc2ccccc2)c1C=NOCc1ccc(C(=O)OC(C)(C)C)cc1` [fenpyroximate]: in the assay on Phaedon cochleariae (setting [1]), the pest or weed control at 20 g/ha came out at 0%. Also, the pest or weed control at 4 g/ha with Tetranychus urticae (setting [6]) stood at 60%. Moreover, in the assay on Spodoptera frugiperda (setting [8]), the pest or weed control at 100 g/ha was 50%. In the assay with Myzus persicae (setting [8]), the pest or weed control at 0.8 g/ha came out at 0%.

On to `Cc1c(COC(=O)C2C(/C=C(\Cl)C(F)(F)F)C2(C)C)cccc1-c1ccccc1` (centres unmarked) [bifenthrin], for which the pest or weed control at 0.8 g/ha was 50% with Phaedon cochleariae (setting [4]) and 0% with Spodoptera frugiperda (setting [8]). Moreover, the pest or weed control at 4 g/ha with Tetranychus urticae (setting [6]) was found to be 40%. The pest or weed control at 0.032 g/ha with Myzus persicae (setting [8]) came out at 0%.

Regarding spinetoram, the “Kill in % after 6 d” value with Phaedon cochleariae (0.8 g/ha, 6 d) is on record as 50%; in the assay with Myzus persicae (single active compound, 0.8 g/ha, 6 d), 0%. The “Kill in % after 2 d” value was 20% with Tetranychus urticae (single active compound, 4 g/ha, after 2 d) and 50% in the assay on Spodoptera frugiperda (single active compound, 0.16 g/ha, 2 d).
